# ChEMBL document CHEMBL1201862, “PubChem BioAssay data set” (2004)
# The source made the active and inactive calls.
# Assays:
# Protein skinhead-1 = biological target: T1, Protein skinhead-1 (Caenorhabditis elegans, UniProt P34707); type: functional
# T1 sequence (P34707 whole entry): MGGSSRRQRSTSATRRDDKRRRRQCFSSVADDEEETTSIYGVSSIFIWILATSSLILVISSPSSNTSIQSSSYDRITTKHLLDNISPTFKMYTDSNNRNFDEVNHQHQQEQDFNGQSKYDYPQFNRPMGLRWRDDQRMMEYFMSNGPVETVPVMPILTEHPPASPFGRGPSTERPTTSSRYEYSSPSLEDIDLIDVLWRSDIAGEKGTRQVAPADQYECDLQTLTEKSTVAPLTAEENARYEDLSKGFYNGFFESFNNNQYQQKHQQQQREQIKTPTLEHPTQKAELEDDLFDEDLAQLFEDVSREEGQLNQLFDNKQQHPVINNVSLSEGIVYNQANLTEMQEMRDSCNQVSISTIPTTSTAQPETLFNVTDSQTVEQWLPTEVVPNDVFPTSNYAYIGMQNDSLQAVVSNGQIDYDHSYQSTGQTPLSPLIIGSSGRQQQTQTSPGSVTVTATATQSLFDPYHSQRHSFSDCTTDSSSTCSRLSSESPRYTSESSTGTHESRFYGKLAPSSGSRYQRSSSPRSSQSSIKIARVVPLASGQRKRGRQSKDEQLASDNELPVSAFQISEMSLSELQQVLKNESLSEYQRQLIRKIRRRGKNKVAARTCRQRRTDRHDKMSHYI
# [1] = Luminescence Cell-Based Dose Response HTS to Identify Activators of Luciferase Translation or Activity in H4 […] Cells. [Related pubchem assays: 1829 (Project Summary), 1814 (Primary HTS)]; type: functional
# [2] = Luminescence Cell-Based Dose Confirmation HTS to Identify Activators of 5'UTR Stem-Loop Driven Alpha-Synuclein mRNA Translation in H4 Neuroglioblastoma Cells. [Related pubchem assays: 1829 (Project Summary), 1814 (Primary HTS)]; type: functional
# H4 = experiment: Luminescence Cell-Based Dose Response HTS to Identify Activators of 5'UTR Stem-Loop Driven Prion Protein mRNA Translation in H4 Neuroglioblastoma Cells. [Related pubchem assays: 1829 (Project Summary), 1814 (Primary HTS)]; type: functional; details: Homo sapiens
# cells = type: functional
# [3] = test system: Streptococcus sp. 'group A'; experiment: growth inhibition of control SK(-) GAS strain, dose response, counter-screen for streptokinase expression inhibitor project, luminescence, kanamycin, BacTiterGlo, confirmation (AID 1900); type: functional, organism-based
# Streptococcus = experiment: Group A Streptococcus viability loss, dose response, counter-screen for streptokinase expression inhibitor project, luminescence, BacTiterGlo (AID 1915); type: functional, organism-based;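 also: potency for reduction of bacterial viability or growth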
# [4] = THP-1 cell cytotoxicity, dose response, cytotoxicity control for non-replicating M. tuberculosis project (AID 489025); type: functional
# Streptokinase A = biological target: T2, Streptokinase A (Streptococcus pyogenes serotype M1, UniProt P10520); experiment: S. pyogenes streptokinase expression inhibitors, potency, dose response, plasminogen activation absorbance, OD405 (AID 1914); type: functional, Streptococcus pyogenes M1 GAS;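 also: secreted streptokinase activity via plasminogen activation per viability signal from cell pellet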
# T2 sequence (P10520 whole entry): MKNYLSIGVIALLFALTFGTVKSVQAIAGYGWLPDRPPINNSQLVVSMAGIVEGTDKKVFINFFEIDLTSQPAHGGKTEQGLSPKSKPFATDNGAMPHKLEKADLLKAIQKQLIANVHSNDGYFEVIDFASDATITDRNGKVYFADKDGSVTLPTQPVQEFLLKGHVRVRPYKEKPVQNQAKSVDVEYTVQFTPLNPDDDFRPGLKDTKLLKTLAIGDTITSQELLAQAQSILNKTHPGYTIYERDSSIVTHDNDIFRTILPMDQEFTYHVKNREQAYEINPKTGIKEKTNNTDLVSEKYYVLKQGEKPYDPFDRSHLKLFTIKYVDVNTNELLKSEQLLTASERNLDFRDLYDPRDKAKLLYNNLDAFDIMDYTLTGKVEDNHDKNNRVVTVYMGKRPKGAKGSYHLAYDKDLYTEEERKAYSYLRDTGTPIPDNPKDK
# Fatty acid synthase [5] = biological target: T3, Fatty acid synthase (Homo sapiens, UniProt P49327); experiment: FAS thioesterase domain inhibitors, dose response, biochemical, kinetic fluorescence intensity (AID 624326); type: functional;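 also: rate of fluorescence rise from hydrolysis of a fluorogenic O-methyl fluorescein ester substrate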
# Fatty acid synthase [6] = biological target: T3, Fatty acid synthase; experiment: FAS thioesterase domain inhibitors, dose response, biochemical, endpoint fluorescence intensity, uHTS hits (AID 624327); type: functional;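 also: fluorescence from hydrolysis of an O-methyl fluorescein acyl ester substrate by the enzyme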
# Genome polyprotein = Genome polyprotein (dengue virus type 2, UniProt P29990); experiment: Dengue-2 NS5 methyltransferase inhibitors, primary screen, biochemical, confirmation dose response (AID 588689); type: functional
# Nonstructural protein 1 = Nonstructural protein 1 (Influenza A virus, UniProt Q194T2); type: functional, Influenza A virus (A/California/07/2009(H1N1))
# Large T antigen = Large T antigen (Simian virus 40, UniProt P03070); type: functional, Betapolyomavirus macacae;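 also: Confirmatory-stage PubChem screen for compounds that inhibit SV40 T antigen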
# [7] = Shn3 3'UTR reporter inhibitors, dose response, cell-based, Clone20 osteoblasts, firefly luciferase, cherry-picked (AID 624132); type: functional;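 also: firefly luciferase luminescence from reporter carrying the Shn3 3'UTR in osteoblasts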
# [8] = control 3'UTR Renilla luciferase suppression, dose response, counter-screen for Shn3 inhibitor project, cell-based, Clone20-Shn3RL, cherry-picked (AID 624133); type: functional
# [9] = HepG2 cell cytotoxicity, dose response, cytotoxicity control for Shn3 inhibitor project, CellTiter-Glo, cherry-picked (AID 624134); type: functional, cell-based
# Cytochrome P450 2C19 = Cytochrome P450 2C19 (Homo sapiens, UniProt P33261); experiment: Cytochrome panel assay with activity outcomes. Panel member name: p450-cyp2c19 Compounds with AC50 equal or less than 10 uM are considered active; type: functional; details: read-out: AC50
# [10] = inhibitors of clade B AD8 Env fusion, dose response, cell-based, cherry-pick (AID 652062); type: functional;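 also: luciferase signal from cell-cell fusion driven by HIV-1 clade B AD8 Env; potency is for inhibitors of fusion seen as a drop in luminescence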
# [11] = inhibitors of HIV Env-driven cell fusion, dose response, cherry-pick (AID 652057); type: functional, cell-based
# [12] = ZM109 Env clade C HIV-1 fusion inhibitors, dose response, HeLa effector, CEM target cells, luciferase, cherry-pick (AID 652058); type: functional, cell-based
# [13] = biological target: FAD-linked sulfhydryl oxidase ALR (Homo sapiens, UniProt P55789); experiment: inhibitors of human ALR sulfhydryl oxidase, dose response, biochemical, H2O2 detection, luminescence, cherry-pick (AID 493248)
# Sequence of FAD-linked sulfhydryl oxidase ALR (P55789 whole entry): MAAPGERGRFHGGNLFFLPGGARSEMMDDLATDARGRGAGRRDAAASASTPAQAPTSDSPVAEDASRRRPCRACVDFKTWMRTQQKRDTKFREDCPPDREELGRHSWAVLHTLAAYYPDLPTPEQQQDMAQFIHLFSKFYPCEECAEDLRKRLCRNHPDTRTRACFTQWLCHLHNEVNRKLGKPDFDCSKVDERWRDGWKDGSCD
# Sequence of Large T antigen (P03070 whole entry): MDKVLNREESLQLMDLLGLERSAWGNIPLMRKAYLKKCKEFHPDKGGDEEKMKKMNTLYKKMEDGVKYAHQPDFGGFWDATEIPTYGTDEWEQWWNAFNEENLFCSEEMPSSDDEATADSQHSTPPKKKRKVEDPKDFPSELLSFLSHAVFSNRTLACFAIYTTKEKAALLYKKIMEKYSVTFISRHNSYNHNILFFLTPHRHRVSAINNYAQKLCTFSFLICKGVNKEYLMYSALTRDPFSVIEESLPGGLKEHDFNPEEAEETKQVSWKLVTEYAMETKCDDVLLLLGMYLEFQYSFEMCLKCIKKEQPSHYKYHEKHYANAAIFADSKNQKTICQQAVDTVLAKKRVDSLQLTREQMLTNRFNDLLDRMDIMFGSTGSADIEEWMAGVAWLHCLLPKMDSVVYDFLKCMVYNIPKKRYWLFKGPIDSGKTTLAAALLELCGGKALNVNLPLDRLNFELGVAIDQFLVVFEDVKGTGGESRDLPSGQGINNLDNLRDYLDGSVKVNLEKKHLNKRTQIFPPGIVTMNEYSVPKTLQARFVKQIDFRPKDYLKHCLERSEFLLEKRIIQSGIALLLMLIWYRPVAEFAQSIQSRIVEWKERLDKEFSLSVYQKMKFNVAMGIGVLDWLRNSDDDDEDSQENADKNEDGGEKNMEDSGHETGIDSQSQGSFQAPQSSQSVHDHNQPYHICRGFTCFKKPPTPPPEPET
# T3 sequence (P49327 whole entry, the tested form may be a part): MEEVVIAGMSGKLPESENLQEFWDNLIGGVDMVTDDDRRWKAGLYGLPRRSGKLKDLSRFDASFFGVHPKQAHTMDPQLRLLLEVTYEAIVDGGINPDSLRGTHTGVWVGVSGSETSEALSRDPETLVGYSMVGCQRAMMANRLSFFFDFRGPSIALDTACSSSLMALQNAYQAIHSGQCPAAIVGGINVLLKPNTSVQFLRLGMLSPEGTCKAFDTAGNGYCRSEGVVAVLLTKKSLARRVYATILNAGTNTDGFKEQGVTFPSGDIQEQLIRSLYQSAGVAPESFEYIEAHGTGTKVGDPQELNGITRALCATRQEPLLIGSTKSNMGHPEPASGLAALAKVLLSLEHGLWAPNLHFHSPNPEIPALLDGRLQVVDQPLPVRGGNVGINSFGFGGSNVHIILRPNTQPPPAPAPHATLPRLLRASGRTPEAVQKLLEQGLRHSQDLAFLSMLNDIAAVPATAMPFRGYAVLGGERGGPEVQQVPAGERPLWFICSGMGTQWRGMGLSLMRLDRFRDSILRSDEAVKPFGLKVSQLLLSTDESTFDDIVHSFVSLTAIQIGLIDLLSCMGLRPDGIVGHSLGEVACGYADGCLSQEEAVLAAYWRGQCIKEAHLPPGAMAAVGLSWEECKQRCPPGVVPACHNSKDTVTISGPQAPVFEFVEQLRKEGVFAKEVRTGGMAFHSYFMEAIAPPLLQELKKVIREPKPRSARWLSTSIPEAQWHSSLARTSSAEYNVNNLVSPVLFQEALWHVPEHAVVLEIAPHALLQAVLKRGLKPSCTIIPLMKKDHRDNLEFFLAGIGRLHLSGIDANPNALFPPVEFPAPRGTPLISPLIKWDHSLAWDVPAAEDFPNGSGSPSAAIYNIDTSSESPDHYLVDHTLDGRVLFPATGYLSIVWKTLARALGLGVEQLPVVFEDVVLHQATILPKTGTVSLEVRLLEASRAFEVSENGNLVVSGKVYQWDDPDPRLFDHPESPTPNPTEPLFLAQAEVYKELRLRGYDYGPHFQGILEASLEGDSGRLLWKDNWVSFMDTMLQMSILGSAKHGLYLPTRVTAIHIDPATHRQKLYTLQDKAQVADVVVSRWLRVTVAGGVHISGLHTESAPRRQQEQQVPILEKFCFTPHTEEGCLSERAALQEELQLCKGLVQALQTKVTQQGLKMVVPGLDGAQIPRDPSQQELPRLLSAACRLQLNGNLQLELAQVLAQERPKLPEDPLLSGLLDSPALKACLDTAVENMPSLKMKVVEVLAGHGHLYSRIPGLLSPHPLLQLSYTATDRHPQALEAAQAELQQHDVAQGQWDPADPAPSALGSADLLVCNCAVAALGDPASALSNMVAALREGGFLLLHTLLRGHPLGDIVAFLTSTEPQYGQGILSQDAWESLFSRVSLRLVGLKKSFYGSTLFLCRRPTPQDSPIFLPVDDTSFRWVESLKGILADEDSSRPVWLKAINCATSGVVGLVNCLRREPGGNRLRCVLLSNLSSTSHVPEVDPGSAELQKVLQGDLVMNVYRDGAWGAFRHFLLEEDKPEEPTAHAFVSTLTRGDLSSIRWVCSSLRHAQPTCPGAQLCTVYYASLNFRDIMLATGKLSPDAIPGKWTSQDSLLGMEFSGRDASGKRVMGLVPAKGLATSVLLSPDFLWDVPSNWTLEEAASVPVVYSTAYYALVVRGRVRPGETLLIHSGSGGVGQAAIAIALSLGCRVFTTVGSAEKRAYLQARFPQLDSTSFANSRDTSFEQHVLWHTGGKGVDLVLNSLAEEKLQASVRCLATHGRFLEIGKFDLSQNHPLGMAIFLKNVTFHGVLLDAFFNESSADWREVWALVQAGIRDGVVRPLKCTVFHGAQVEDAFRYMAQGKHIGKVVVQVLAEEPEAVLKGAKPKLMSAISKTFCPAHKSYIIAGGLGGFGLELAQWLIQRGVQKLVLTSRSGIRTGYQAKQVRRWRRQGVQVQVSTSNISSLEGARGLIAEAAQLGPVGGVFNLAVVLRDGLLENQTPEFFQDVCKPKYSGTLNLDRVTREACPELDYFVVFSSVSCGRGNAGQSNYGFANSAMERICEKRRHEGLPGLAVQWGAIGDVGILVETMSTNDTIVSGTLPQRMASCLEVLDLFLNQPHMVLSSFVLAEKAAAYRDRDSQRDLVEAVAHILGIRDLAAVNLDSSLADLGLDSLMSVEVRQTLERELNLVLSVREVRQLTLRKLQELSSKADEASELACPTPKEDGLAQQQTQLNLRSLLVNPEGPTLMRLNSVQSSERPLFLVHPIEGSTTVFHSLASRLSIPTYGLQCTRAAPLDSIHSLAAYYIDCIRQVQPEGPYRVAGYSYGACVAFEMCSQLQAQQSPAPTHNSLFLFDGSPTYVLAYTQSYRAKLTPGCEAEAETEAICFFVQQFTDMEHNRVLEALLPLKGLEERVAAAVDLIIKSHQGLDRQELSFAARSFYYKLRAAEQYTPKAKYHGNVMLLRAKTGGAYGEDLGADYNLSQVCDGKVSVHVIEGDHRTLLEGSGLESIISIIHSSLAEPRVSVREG
# Sequence of Genome polyprotein (P29990 2492-3391 limits assumed): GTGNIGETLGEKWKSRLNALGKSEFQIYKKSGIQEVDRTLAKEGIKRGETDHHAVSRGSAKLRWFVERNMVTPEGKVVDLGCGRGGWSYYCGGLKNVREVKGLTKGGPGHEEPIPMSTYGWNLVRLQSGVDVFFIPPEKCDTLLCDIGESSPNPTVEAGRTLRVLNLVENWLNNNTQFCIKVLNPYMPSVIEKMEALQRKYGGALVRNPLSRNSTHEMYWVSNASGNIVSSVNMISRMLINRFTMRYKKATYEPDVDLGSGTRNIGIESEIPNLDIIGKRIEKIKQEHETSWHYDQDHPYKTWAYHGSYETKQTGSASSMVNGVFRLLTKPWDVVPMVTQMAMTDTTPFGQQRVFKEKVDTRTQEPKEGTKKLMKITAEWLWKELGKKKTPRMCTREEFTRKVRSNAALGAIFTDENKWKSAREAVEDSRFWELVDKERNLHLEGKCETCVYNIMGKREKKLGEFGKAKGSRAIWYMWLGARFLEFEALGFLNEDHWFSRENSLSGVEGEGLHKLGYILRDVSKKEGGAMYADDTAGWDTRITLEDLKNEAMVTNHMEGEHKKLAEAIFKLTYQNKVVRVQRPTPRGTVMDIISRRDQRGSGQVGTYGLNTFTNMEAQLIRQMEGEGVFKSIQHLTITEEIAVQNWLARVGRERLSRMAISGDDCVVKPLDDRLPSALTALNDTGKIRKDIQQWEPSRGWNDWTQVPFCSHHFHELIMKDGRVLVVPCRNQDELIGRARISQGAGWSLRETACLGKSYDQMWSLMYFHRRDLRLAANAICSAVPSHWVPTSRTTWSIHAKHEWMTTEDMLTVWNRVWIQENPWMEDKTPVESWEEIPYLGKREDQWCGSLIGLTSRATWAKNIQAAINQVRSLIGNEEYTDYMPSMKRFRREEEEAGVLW
# Sequence of Nonstructural protein 1 (Q194T2 whole entry): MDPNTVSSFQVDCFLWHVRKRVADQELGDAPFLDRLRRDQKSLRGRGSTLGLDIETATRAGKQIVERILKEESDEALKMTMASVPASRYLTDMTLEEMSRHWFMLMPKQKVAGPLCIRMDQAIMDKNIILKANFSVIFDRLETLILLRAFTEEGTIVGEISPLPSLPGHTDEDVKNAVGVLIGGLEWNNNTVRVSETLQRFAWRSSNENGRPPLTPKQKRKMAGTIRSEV
# Sequence of Cytochrome P450 2C19 (P33261 whole entry, the tested form may be a part): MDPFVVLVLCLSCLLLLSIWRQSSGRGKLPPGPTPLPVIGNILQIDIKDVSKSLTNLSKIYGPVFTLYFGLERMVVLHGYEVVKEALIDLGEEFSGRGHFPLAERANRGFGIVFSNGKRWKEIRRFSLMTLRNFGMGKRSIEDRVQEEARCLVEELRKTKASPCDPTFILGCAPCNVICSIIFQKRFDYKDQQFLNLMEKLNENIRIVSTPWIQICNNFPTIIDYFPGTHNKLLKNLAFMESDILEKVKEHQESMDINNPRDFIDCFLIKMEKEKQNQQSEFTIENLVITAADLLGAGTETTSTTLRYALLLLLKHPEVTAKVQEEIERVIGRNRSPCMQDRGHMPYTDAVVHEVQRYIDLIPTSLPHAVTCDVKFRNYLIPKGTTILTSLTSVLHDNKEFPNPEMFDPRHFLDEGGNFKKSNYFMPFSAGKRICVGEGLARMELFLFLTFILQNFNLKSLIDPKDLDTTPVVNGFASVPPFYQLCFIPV
smiles,measurement,setting,value
Clc1ccc(-c2cn3c(n2)-c2ccccc2C3)cc1Cl,IC50,Protein skinhead-1,> 100 µM (inactive)
Cc1ccc(-c2csc(-c3ccncc3)n2)cc1,IC50,Protein skinhead-1,65.2 µM (inactive)
O=C(COn1nnc2ccccc21)NCC1CCCCC1,EC50,[1],68.8 µM (active)
same,EC50,[2],5.83 µM (active)
same,EC50,H4,31.9 µM (inconclusive)
O=C(NC1CC1)c1cc(-c2ccc(Br)cc2)nc2ccccc12,IC50,Protein skinhead-1,> 100 µM (inactive)
CC12CN3CC(C)(CN(C1)C3c1ccc([N+](=O)[O-])o1)C2 (stereo unspecified),IC50,cells,11.1 µM (active)
COc1ccc2cc(C(=O)C3CCCN(Cc4cccc(C)n4)C3)ccc2c1 (stereo unspecified),IC50,cells,3 µM (active)
same,EC50,[3],11.1 µM (active)
same,EC50,Streptococcus,> 150 µM (not active)
same,CC50,[4],> 40 µM (active)
same,EC50,Streptokinase A,> 150 µM (not active)
O=C1CC(c2cccc([N+](=O)[O-])c2)c2c(ccc3ccccc23)N1 (stereo unspecified),IC50,Fatty acid synthase [5],56.4 µM (inactive)
same,IC50,Fatty acid synthase [6],52.2 µM (inactive)
Cc1cc(C)c2cc(C#N)c(N3CCCC3)nc2c1,IC50,Protein skinhead-1,> 100 µM (inactive)
C=CCOc1c(Br)cc(/C=C2/C(=O)ON=C2C)cc1OC,IC50,Genome polyprotein,> 100 µM (active)
CCN(Cc1ccccc1)c1ccc(N=Nc2nn(C)c(C)c2[N+](=O)[O-])cc1,IC50,Fatty acid synthase [5],7.95 µM (active)
same,IC50,Fatty acid synthase [6],13.9 µM (active)
same,IC50,Nonstructural protein 1,9.29 µM (active)
Cc1ccc(CCC(=O)Nc2cc(Cl)ccc2Cl)o1,IC50,cells,42.8 µM (active)
Cc1cccn2c(CN(C)CCC3CCCCO3)c(C(=O)N3CCCCC3)nc12 (stereo unspecified),EC50,[1],> 120 µM (not active)
same,EC50,[2],19.9 µM (active)
same,EC50,H4,> 120 µM (not active)
CC1(C)CC(=O)C(C(c2ccc(Br)cc2)C2C(=O)CC(C)(C)CC2=O)C(=O)C1,IC50,Genome polyprotein,79.3 µM (active)
O=C(O)c1cc(S(=O)(=O)O)cc(Nc2c3ccccc3nc3ccccc23)c1O,IC50,Large T antigen,20.2 µM (active)
Cn1c(=O)c2c(nc(NCC3CCCC(CN)C3)n2Cc2ccc(Cl)cc2Cl)n(C)c1=O (stereo unspecified),EC50,[1],> 120 µM (not active)
same,EC50,[2],> 120 µM (not active)
same,EC50,H4,> 120 µM (not active)
Cc1ccc(C)c(S(=O)(=O)N2CCN(C(=O)C3CCN(c4ncnc5sc(C)c(C)c45)CC3)CC2)c1,AC50,[7],2.82 µM (active)
same,AC50,[8],2.29 µM (active)
same,AC50,[9],> 70 µM (inactive)
O=[N+]([O-])c1ccc(Sc2n[nH]c(-c3ccccc3)n2)nc1,EC50,[1],93.9 µM (active)
same,EC50,[2],5.81 µM (active)
same,EC50,H4,> 120 µM (not active)
Cc1cc2c(=O)oc(-c3ccccc3Br)nc2s1,IC50,Fatty acid synthase [5],8.01 µM (active)
same,IC50,Fatty acid synthase [6],7.57 µM (active)
Cc1ccc(NC(=O)C2OCCc3ccccc32)cc1 (stereo unspecified),EC50,[1],12 µM (active)
same,EC50,[2],14.7 µM (active)
same,EC50,H4,31.4 µM (active)
CC(=O)Nc1sc(/C(C#N)=C\c2cccc(Cl)c2)nc1-c1ccc(C)cc1,IC50,Protein skinhead-1,> 100 µM (inactive)
CCN(CC)c1ccc(NC(=O)c2ccccc2F)cc1,IC50,Large T antigen,18.8 µM (active)
Clc1ccc2oc(-c3cccnc3)nc2c1,AC50,Cytochrome P450 2C19,14.1 µM (inconclusive)
same,IC50,Protein skinhead-1,29 µM (active)
COc1cccc(-n2c(CN3CCN(c4ccccn4)CC3)nc3ccc([N+](=O)[O-])cc3c2=O)c1,IC50,Fatty acid synthase [5],3.67 µM (active)
same,IC50,Fatty acid synthase [6],3.23 µM (active)
O=C(Nc1ccc(C2CC2(Cl)Cl)cc1)c1ccccc1Br (stereo unspecified),IC50,Protein skinhead-1,70 µM (inactive)
COc1ccc2nc(NC3=NCCC3)sc2c1,EC50,[1],22.1 µM (active)
same,EC50,[2],37.7 µM (active)
same,EC50,H4,8.52 µM (active)
Cc1ccc(OCCNC(=O)CNC(=O)c2ccc(Cl)c([N+](=O)[O-])c2)cc1,IC50,Fatty acid synthase [5],9.71 µM (active)
same,IC50,Fatty acid synthase [6],8.99 µM (active)
O=C(CN1CCCC1c1cccs1)Nc1cc(S(=O)(=O)N2CCCCC2)ccc1Cl (stereo unspecified),AC50,[7],14.4 µM (active)
same,AC50,[8],6.82 µM (active)
same,AC50,[9],60.5 µM (active)
Cn1nc(C(C)(C)C)cc1C(=O)N1CCCCC1c1cc(C(=O)Nc2cccc3c2CCCC3)no1 (stereo unspecified),AC50,[7],10.2 µM (active)
same,AC50,[8],16.5 µM (active)
same,AC50,[9],62.8 µM (active)
COC(=O)C1=C(c2ccc(OCc3ccccc3)cc2)C[C@@H]2CC[C@H]1N2C(=O)NCc1ccc(C(C)(C)C)cc1,AC50,[7],6.84 µM (active)
same,AC50,[8],1.63 µM (active)
same,AC50,[9],> 70 µM (inactive)
O=C(Nc1cccc(C(=O)O)c1)/C(=C\c1cccc([N+](=O)[O-])c1)NC(=O)c1ccc(Br)cc1,IC50,Fatty acid synthase [5],5.19 µM (active)
same,IC50,Fatty acid synthase [6],4.62 µM (active)
O=C(C[C@H]1C=C[C@@H](NC(=O)Nc2ccccc2F)[C@@H](CO)O1)NCc1ccc(-c2ccccc2)cc1,AC50,[10],< 0.26 µM (active)
same,AC50,[11],< 0.26 µM (active)
same,AC50,[12],< 0.26 µM (active)
Cc1ccc(S(=O)(=O)Nc2ccc3c(c2)CC(=O)N([C@@H](C)CO)C[C@H](C)[C@H](CN(C)S(=O)(=O)c2ccccc2)O3)cc1,AC50,[10],34.2 µM (active)
same,AC50,[11],14.7 µM (active)
same,AC50,[12],15.5 µM (active)
C[C@H](CO)N1C[C@H](C)[C@H](CN(C)S(=O)(=O)c2ccccc2)Oc2ccc(NC(=O)Cn3cnnn3)cc2CC1=O,AC50,[10],20.3 µM (active)
same,AC50,[11],13.5 µM (active)
same,AC50,[12],2.07 µM (active)
Cc1ccc(S(=O)(=O)N2CCN(CC(=O)N/N=C\c3ccc(O)c(O)c3)CC2)cc1,AC50,[13],2.26 µM (active)
same,IC50,Large T antigen,9.98 µM (active)
COC(=O)c1ccc(/N=C/c2c(-c3ccccc3)n[nH]c2O)cc1,EC50,[1],> 120 µM (not active)
same,EC50,[2],> 120 µM (not active)
same,EC50,H4,> 120 µM (not active)
